Data: ChEMBL document CHEMBL3507680, “University of Dundee, Gates Library screen for HepG2 cell viability”

Assay: Human HepG2 cell viability assay in 384 well format
Type: toxicity, cell-based
Parameters: dose 125 nL, time 70.5 hour; cytotoxicity at 70.5 h: concentration not given beside the values
Settings: HepG2 cells, read-out: Inhibition

| SMILES | cytotoxicity at 70.5 h [%] |
| --- | --- |
| Cc1cc(C)n(-c2ccc3nnc(C)n3n2)n1 | 18 |
| C[C@H](NC(=O)N1CCC(Cc2ccccc2)CC1)C(=O)O | -12.5 |
| Cn1c2ccc(F)cc2c2ncn(CCN3CCOCC3)c(=O)c21 | 17.4 |
| CC(=O)NCCC(Cc1ccccc1)c1ccco1 (stereo not drawn) | -13.4 |
| C/C(NC(=O)c1cccs1)=C1\C(=O)C[C@@H]2[C@H]1C2(C)C | -10 |
| COC(=O)CC(c1ccc(OC)c(O)c1)c1oc(C)cc(=O)c1O (stereo not drawn) | -2.8 |
| COC(=O)CC(c1ccc(O)c(Cl)c1)c1oc(C)cc(=O)c1O (stereo not drawn) | 1.45 |
| COC(=O)CC(c1cccnc1)c1oc(C)cc(=O)c1O (stereo not drawn) | -16.7 |
| CCc1c(O)nc(SCC(=O)c2ccccc2)n(-c2ccccc2)c1=O | -2.09 |
| O=c1[nH]cc(Nc2ccc(Cl)cc2)c(=O)[nH]1 | 29.9 |
| CN(CC(=O)N1CCc2[nH]c3ccccc3c2C1)CC1OCCO1 | 24 |
| Cc1cc(NCCN)nc(-c2ccccc2O)n1 | 35.9 |
| CSc1c(CC(=O)O)n(C)c2ccccc12 | -0.594 |
| Cc1nn(C2CCCC2)c2c1C(c1ccc3c(c1)OCO3)SCC(=O)N2 (stereo not drawn) | -12.2 |
| CSCC[C@@H](CO)NC(=O)c1sc(-c2ccccc2Cl)nc1C | -16.5 |
| COC(=O)CCCNC(=O)N1CCc2c([nH]c3ccc(Cl)cc23)C1 | -6.07 |
| COc1ccc(CC(=O)NCCCc2nnc3nc(C)cc(C)n23)cc1 | -10.1 |
| O=C(CC1NC(N2CCc3ccccc3C2)=NC1=O)Nc1ccccc1 (stereo not drawn) | -5.52 |
| CNc1oc(-c2ccc(OC)c(S(=O)(=O)N(C)C)c2)nc1C#N | -9.03 |
| CCCn1nnc2c(sc3nc(N4CCOCC4)c4c(c32)CCC4)c1=O | -21.7 |
| O=C(O)CCCNC(=O)N1CCc2c([nH]c3ccc(Cl)cc23)C1 | -7.18 |
| Cc1nc(-c2noc3ccc(C(=O)NCCN4CCOCC4)cc23)co1 | 12.2 |

| SMILES | cytotoxicity at 70.5 h [%] |
| --- | --- |
| CN(C)S(=O)(=O)N1C[C@H]2CCC[C@@]2(COCC2CC2)C1 | 16.4 |
| COCC(=O)N1CC[C@@H]2O[C@@H](COCC3CCOCC3)CC[C@@H]21 | 12.6 |
| Fc1cnc(N2CC[C@@H](N3CCOCC3)[C@@H]2Cc2ccccc2)nc1 | 8.96 |
| CN(C)c1cccc(C(=O)N2CCc3ccc(=O)[nH]c3CC2)c1 | -6.59 |
| Cn1c2c(c(=O)n1C)CN(S(=O)(=O)c1cccs1)CCC2 | -5.01 |
| CN(C)C(=O)N1CCc2ccc(=O)[nH]c2CC1 | -3.89 |
| Cn1cc(C(=O)N2CC[C@@H]3[C@@H]2CCN3c2ccccn2)cn1 | -5.62 |
| O=C(c1ccco1)N1CC[C@@H]2O[C@H](COCC3CCOCC3)CC[C@@H]21 | 4.34 |
| CCC(C)[C@H](N)c1nnc(SCC(=O)Nc2ccc(C)cc2C)o1 (stereo partly drawn) | 0.595 |
| CC(C)[C@H](N)c1nnc(SCC(=O)Nc2ccc(Br)cc2)o1 | -4.97 |
| CC(C)C[C@H](N)c1nnc(SCC(N)=O)o1 | 24.4 |
| CCN1CCC2(CC1)OCCN2C(=O)c1ccc(OC)c(Cl)c1 | 3.75 |
| CN(C)CCNCCC(c1ccccc1)C1CCOC(C)(C)C1 (stereo not drawn) | -6.43 |
| CN1CCN(c2ccc3ccc(C(=O)N4CCCO4)cn23)CC1 | -9.32 |
| Cn1cc(C[C@H]2[C@H](N3CCOCC3)CCN2c2ncc(F)cn2)cn1 | 3.47 |
| Cc1ccc(CN2C[C@@H]3[C@@H](C(=O)N4CCCC4)CCS(=O)(=O)[C@@H]3C2)cc1 | -1.09 |
| CN1CCC2(COCCN(Cc3cccc(C#N)c3)C2)C1 (stereo not drawn) | -0.504 |
| COCCN1CCO[C@@H]2CN(Cc3sccc3C)C[C@@H]2C1 | 1.15 |
| Fc1cnc(N2CC[C@@H](N3CCOCC3)[C@@H]2Cc2ccncc2)nc1 | 15.9 |
| COCCN1CCC2(COCCN(Cc3ccc4c(c3)OCO4)C2)C1 (stereo not drawn) | -9.54 |
| Cc1csc(NCC(=O)c2c[nH]c3ccccc23)n1 | 3.37 |
